# Biological target: T1, GST-Aurora A (Homo sapiens, UniProt O14965)
# T1 construct: N-terminal GST fusion with full length Aurora A (1-403 amino acids); purchased Carna Biosciences 05-101
# T1 sequence (O14965 1-403): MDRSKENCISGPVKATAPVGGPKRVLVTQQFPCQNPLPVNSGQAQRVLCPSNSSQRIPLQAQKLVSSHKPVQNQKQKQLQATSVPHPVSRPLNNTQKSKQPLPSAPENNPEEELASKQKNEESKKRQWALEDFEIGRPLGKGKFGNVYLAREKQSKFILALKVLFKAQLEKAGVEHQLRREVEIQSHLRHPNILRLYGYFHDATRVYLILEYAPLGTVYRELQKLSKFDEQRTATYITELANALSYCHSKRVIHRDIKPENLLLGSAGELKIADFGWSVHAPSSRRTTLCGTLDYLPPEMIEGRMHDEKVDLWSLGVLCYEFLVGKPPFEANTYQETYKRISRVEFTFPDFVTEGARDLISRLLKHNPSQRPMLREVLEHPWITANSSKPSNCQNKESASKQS
# Test: Aurora A IC50, Caliper LC3000 mobility shift assay
# Assay type: biochemical
# Conditions: LC3000 method; 15 uM ATP (the KM value); read-out: Aurora Kinase A Activity (IC50)
# Procedure, shortened: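 GST-tagged full-length Aurora A (0.067 ng/ul) with 15 uM ATP (KM) and 1 uM FITC-LRRASLG peptide in 100 mM HEPES pH 7.5, 1 mM MgCl2, 1 mM DTT, Brij-35; 90 min at 25 C, EDTA stop. Off-chip mobility shift read of substrate-to-product conversion; IC50 from sigmoidal dose-response.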
row,IC50 [µM],Structure (SMILES)
1,< 0.011,"O=C(Nc1ccc(Nc2ccnc3[nH]c(=O)c4ccccc4c23)cc1)C1CCCCC1 [Compound 386, Cyclohexanecarboxylic acid-[4-(6-oxo-5,6-dihydro-benzo[c][1,8]naphthyridin-1-ylamino)-phenyl]-amide]"
2,< 0.011,"O=C(Nc1ccc(Nc2ccnc3[nH]c(=O)c4ccccc4c23)cc1)c1cccc(C(F)(F)F)c1F [Compound 387, 2-Fluoro-N-[4-(6-oxo-5,6-dihydro-benzo[c][1,8]naphthyridin-1-ylamino)-phenyl]-3-trifluoromethyl-benzamide]"
3,< 0.011,"O=C(Nc1ccc(Nc2ccnc3[nH]c(=O)c4ccccc4c23)cc1)c1c(F)cccc1F [Compound 388, 2,6-Difluoro-N-[4-(6-oxo-5,6-dihydro-benzo[c][1,8]naphthyridin-1-ylamino)-phenyl]-benzamide]"
4,< 0.011,"O=C(Nc1ccc(Nc2ccnc3[nH]c(=O)c4ccccc4c23)cc1)c1ccc(Cl)cc1 [Compound 389, 4-Chloro-N-[4-(6-oxo-5,6-dihydro-benzo[c][1,8]naphthyridin-1-ylamino)-phenyl]-benzamide]"
5,< 0.011,"O=C(Nc1ccc(Nc2ccnc3[nH]c(=O)c4ccccc4c23)cc1)c1cc(Cl)cc(Cl)c1 [Compound 390, 3,5-Dichloro-N-[4-(6-oxo-5,6-dihydro-benzo[c][1,8]naphthyridin-1-ylamino)-phenyl]-benzamide]"
6,< 0.011,"O=C(Nc1ccc(Nc2ccnc3[nH]c(=O)c4ccccc4c23)cc1)c1ccc(F)cc1F [Compound 391, 2,4-Difluoro-N-[4-(6-oxo-5,6-dihydro-benzo[c][1,8]naphthyridin-1-ylamino)-phenyl]-benzamide]"
7,> 0.1,"O=C(Nc1ccccc1Nc1ccnc2[nH]c(=O)c3ccccc3c12)c1ccccc1 [Compound 392, N-[2-(6-Oxo-5,6-dihydro-benzo[c][1,8]naphthyridin-1-ylamino)-phenyl]-benzamide]"
8,< 0.011,"O=C(Nc1ccc(Nc2ccnc3[nH]c(=O)c4ccccc4c23)cc1)c1cccc(Cl)c1 [Compound 393, 3-Chloro-N-[4-(6-oxo-5,6-dihydro-benzo[c][1,8]naphthyridin-1-ylamino)-phenyl]-benzamide]"
9,< 0.011,"Cc1ccc(C(=O)Nc2ccc(Nc3ccnc4[nH]c(=O)c5ccccc5c34)cc2)cc1 [Compound 394, 4-Methyl-N-[4-(6-oxo-5,6-dihydro-benzo[c][1,8]naphthyridin-1-ylamino)-phenyl]-benzamide]"
10,< 0.011,"O=C(Nc1ccc(Nc2ccnc3[nH]c(=O)c4ccccc4c23)cc1)c1c(Cl)cccc1Cl [Compound 395, 2,6-Dichloro-N-[4-(6-oxo-5,6-dihydro-benzo[c][1,8]naphthyridin-1-ylamino)-phenyl]-benzamide]"
11,< 0.011,"O=C(Nc1ccc(Nc2ccnc3[nH]c(=O)c4ccccc4c23)cc1)c1cc(F)cc(C(F)(F)F)c1 [Compound 396, 3-Fluoro-N-[4-(6-oxo-5,6-dihydro-benzo[c][1,8]naphthyridin-1-ylamino)-phenyl]-5-trifluoromethyl-benzamide]"
12,< 0.011,"O=C(Nc1ccc(Nc2ccnc3[nH]c(=O)c4ccccc4c23)cc1)c1ccc(C(F)(F)F)cc1F [Compound 397, 2-Fluoro-N-[4-(6-oxo-5,6-dihydro-benzo[c][1,8]naphthyridin-1-ylamino)-phenyl]-4-trifluoromethyl-benzamide]"
13,< 0.011,"O=C(Nc1ccc(Nc2ccnc3[nH]c(=O)c4ccccc4c23)cc1)c1ccc(Cl)c(Cl)c1 [Compound 398, 3,4-Dichloro-N-[4-(6-oxo-5,6-dihydro-benzo[c][1,8]naphthyridin-1-ylamino)-phenyl]-benzamide]"
14,< 0.011,"O=C(Nc1ccc(Nc2ccnc3[nH]c(=O)c4ccccc4c23)cc1)c1ccc(Cl)cc1Cl [Compound 399, 2,4-Dichloro-N-[4-(6-oxo-5,6-dihydro-benzo[c][1,8]naphthyridin-1-ylamino)-phenyl]-benzamide]"
15,0.011 to 0.1,"O=C(Nc1ccc(Nc2ccnc3[nH]c(=O)c4ccccc4c23)cc1)c1cc(C(F)(F)F)cc(C(F)(F)F)c1 [Compound 400, N-[4-(6-Oxo-5,6-dihydro-benzo[c][1,8]naphthyridin-1-ylamino)-phenyl]-3,5-bis-trifluoromethyl-benzamide]"
16,0.011 to 0.1,"O=C(Nc1ccc(Nc2ccnc3[nH]c(=O)c4ccccc4c23)cc1)c1ccc(OC(F)(F)F)cc1 [Compound 401, N-[4-(6-Oxo-5,6-dihydro-benzo[c][1,8]naphthyridin-1-ylamino)-phenyl]-4-trifluoromethoxy-benzamide]"
17,0.011 to 0.1,"O=C(NC1CCC(Nc2ccnc3[nH]c(=O)c4ccccc4c23)CC1)c1ccc(F)c(F)c1 (centres unmarked) [Compound 402, 3,4-Difluoro-N-[4-(6-oxo-5,6-dihydro-benzo[c][1,8]naphthyridin-1-ylamino)-cyclohexy]-benzamide]"
18,< 0.011,"O=C(Nc1ccc(Nc2ccnc3[nH]c(=O)c4ccc(C(F)(F)F)cc4c23)cc1)c1ccccc1 [Compound 403, N-[4-(9-Trifluoromethyl-6-oxo-5,6-dihydro-benzo[c][1,8]naphthyridin-1-ylamino)-phenyl]-benzamide]"
19,< 0.011,"O=C(Nc1ccc(Nc2ccnc3[nH]c(=O)c4ccc(C(F)(F)F)cc4c23)cc1)c1ccc(F)cc1C(F)(F)F [Compound 404, 4-Fluoro-N-[4-(9-trifluoromethyl-6-oxo-5,6-dihydro-benzo[c][1,8]naphthyridin-1-ylamino)-phenyl]-2-trifluoromethyl-benzamide]"
20,0.011 to 0.1,"O=C(Nc1ccc(Oc2ccnc3[nH]c(=O)c4ccccc4c23)cc1)c1ccccc1 [Compound 405, N-[4-(6-Oxo-5,6-dihydro-benzo[c][1,8]naphthyridin-1-yloxy)-phenyl]-benzamide]"
21,> 0.1,"O=C(c1ccc(F)c(F)c1)N1CCC(CNc2ccnc3[nH]c(=O)c4ccccc4c23)CC1 [Compound 408, 1-{[1-(3,4-Difluoro-benzoyl)-piperidin-4-ylmethyl]-amino}-5H-benzo[c][1,8]naphthyridin-6-one]"
22,< 0.011,"COc1cc2c(=O)[nH]c3nccc(Nc4ccc(NC(=O)c5ccccc5)cc4)c3c2cc1OC [Compound 409, N-[4-(8,9-Dimethoxy-6-oxo-5,6-dihydro-benzo[c][1,8]naphthyridin-1-ylamino)-phenyl]-benzamide]"
23,< 0.011,"O=C(Nc1ccc(Nc2ccnc3[nH]c(=O)c4ccc(F)cc4c23)cc1)c1ccccc1 [Compound 412, N-[4-(9-Fluoro-6-oxo-5,6-dihydro-benzo[c][1,8]naphthyridin-1-ylamino)-phenyl]-benzamide]"
24,< 0.011,"O=C(Nc1ccc(Nc2ccnc3[nH]c(=O)c4ccc(F)cc4c23)cc1)c1ccc(F)cc1C(F)(F)F [Compound 413, 4-Fluoro-N-[4-(9-fluoro-6-oxo-5,6-dihydro-benzo[c][1,8]naphthyridin-1-ylamino)-phenyl]-2-trifluoromethyl-benzamide]"
25,< 0.011,"O=C(Nc1ccc(Nc2ccnc3[nH]c(=O)c4cc(F)ccc4c23)cc1)c1ccc(F)cc1C(F)(F)F [Compound 414, 4-Fluoro-N-[4-(8-fluoro-6-oxo-5,6-dihydro-benzo[c][1,8]naphthyridin-1-ylamino)-phenyl]-2-trifluoromethyl-benzamide]"
26,< 0.011,"O=C(Nc1ccc(Nc2ccnc3[nH]c(=O)c4cc(Cl)ccc4c23)cc1)c1ccc(F)cc1C(F)(F)F [Compound 415, 4-Fluoro-N-[4-(8-chloro-6-oxo-5,6-dihydro-benzo[c][1,8]naphthyridin-1-ylamino)-phenyl]-2-trifluoromethyl-benzamide]"

# — US8735584B2 (Merck Patent GmbH, priority 2008, dated 2014)
